Patent USRE47493E1, “Substituted bicyclic dihydropyrimidinones and their use as inhibitors of neutrophil elastase activity” (Boehringer Ingelheim International GmbH, priority 2014, dated 2019)
Converted amounts (≈) assume the structure as drawn. Where two headings read alike, the source gives them in different places.

Legend:
[1] = molecular target: Human neutrophil elastase (Homo sapiens (Human), UniProt P08246); test: Human Neutrophil Elastase Assay; type: biochemical
Experimental: Human Neutrophil Elastase Assay
Materials: Human neutrophil elastase was purchased from Calbiochem (Cat.No.: 324681) and the elastase substrate MeOSuc-Ala-Ala-Pro-Val-AMC from Bachem (Cat.No.: I-1270). All other materials were of the highest grade commercially available.
The following buffers were used: Compound buffer: 100 mM Tris, 500 mM NaCl, adjusted to pH 7.5; Assay buffer: 100 mM Tris, 500 mM NaCl, adjusted to pH 7.5, containing 0.01% BSA.
Assay conditions: Test compounds were prediluted in DMSO and subsequently in compound buffer (5% DMSO final). 5 μL of these compound dilutions were mixed with 10 μl Neutrophil elastase (9 ng/ml in assay buffer) in a black 384 well OptiPlate (Perkin Elmer, Cat No.: 6007270) and incubated for 15 min at room temperature. Subsequently 10 μL substrate solution in assay buffer were added (250 nM final concentration) and the plates were incubated for 60 min at room temperature. After inactivation of the enzyme, fluorescence intensities were measured at 380 nm excitation and 460 nm emission wavelengths.
Each plate contains wells with a high value control (DMSO+enzyme+substrate) and wells with a low value control (DMSO+inactivated enzyme+substrate). IC50 values were estimated using a sigmoidal concentration response curve with variable slope. Means of low values were taken as 0%, means of high values as 100%.

[2] = molecular target: neutrophil elastase in human plasma (Homo sapiens (Human), UniProt P08246); test: Assay for the Determination of Neutrophil Elastase Inhibitory Activity in Human Plasma; type: biochemical; details: neutrophil elastase enriched human plasma (zymosan-stimulated blood)
neutrophil elastase in human plasma, sequence (P08246 30-267): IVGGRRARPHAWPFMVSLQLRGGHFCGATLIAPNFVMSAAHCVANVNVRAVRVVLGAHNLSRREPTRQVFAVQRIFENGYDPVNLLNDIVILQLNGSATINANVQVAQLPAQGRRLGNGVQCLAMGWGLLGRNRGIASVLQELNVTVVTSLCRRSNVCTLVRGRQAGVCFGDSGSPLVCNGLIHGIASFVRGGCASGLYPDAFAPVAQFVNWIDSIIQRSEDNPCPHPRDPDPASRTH
Experimental: Assay for the Determination of Neutrophil Elastase Inhibitory Activity in Human Plasma
Citrated blood from human healthy donors is mixed with zymosan suspension and incubated at room temperature. This leads to the stimulation of neutrophils and the release of neutrophil elastase into the plasma. The stimulated blood is centrifuged to generate the neutrophil elastase enriched plasma.
Preparation of Zymosan Working Solution:
• single 45 ml blood sample is taken into a 50 ml tube containing citrate (3.13%, 5 mL) and the tube is gently inverted 4 times. • Immediately after blood sampling, zymosan working solution (5 mL) is added. • After the addition of zymosan working solution, the tubes are capped, mixed gently and incubated at 22° C. for 15 min on a shaker at 20 rpm. • Make 10 ml aliquots after the incubation time. • Centrifuge the 15 ml tubes at 800 g for […] at 4° C. in a Jouan centrifuge. • Harvest the plasma and make 1-5 ml aliquots. • Store the plasma at −80° C.
Various concentrations of the neutrophil elastase inhibitor are incubated with plasma. Subsequently, the enzyme activity is measured using the fluorogenic substrate MeOSuc-Ala-Ala-Pro-Val-AMC (Bachem Cat. No. 1-1270, substrate concentration: 250 μM, pH 7.5, 25 mM TRIS buffer, 250 mM NaCl) in analogous fashion as described for the human neutrophil assay. A dose response curve is generated to calculate the EC50 of the inhibitor. The analysis of the data is performed by the calculation of the percentage of fluorescence in the presence of the test compound compared to the fluorescence of the vehicle control after subtracting the background fluorescence: An inhibitor of the neutrophil elastase enzyme will give values between 100% control (no inhibition) and 0% control (complete inhibition). The human plasma shift of selected compounds can be calculated using the following equation: Human plasma shift=(EC50 in human plasma assay)/(IC50 in human neutrophil elastase assay) The EC50 values of selected compounds in the human plasma assay described above are listed in Table 14.

[3] = Assay for the Determination of Metabolic Stability with Human Liver Microsomes; type: in vitro ADME; details: pH 7.6; pooled human liver microsomes, 37° C., NADPH; read-out: t1/2 INVITRO
Experimental: Assay for the Determination of Metabolic Stability with Human Liver Microsomes
The metabolic degradation of the test compound is assayed at 37° C. with pooled human liver microsomes. The final incubation volume of […] per time point contains TRIS buffer pH 7.6 (0.1 M), magnesium chloride (5 mM), microsomal protein (1 mg/ml) and the test compound at a final concentration of […]. Following a short preincubation period at 37° C., the reactions are initiated by addition of beta-nicotinamide adenine dinucleotide phosphate, reduced form (NADPH, 1 mM) and terminated by transfering an aliquot into acetonitrile after different time points. Additionally, the NADPH-independent degradation is monitored in incubations without NADPH, terminated at the last time point. The rol remaining test compound after NADPH independent incubation is reflected by the parameter c(control) (metabolic stability). The quenched incubations are pelleted by centrifugation (10′000 g, 5 min) An aliquot of the supernatant is assayed by LC-MS/MS for the amount of parent compound.
The half-life (t1/2 INVITRO) is determined by the slope of the semilogarithmic plot of the concentration-time profile. The intrinsic clearance (CL_[…]) is calculated by considering the amount of protein in the incubation: CL_[…][μl/min/mg protein]=(ln 2/(half-life [min]*protein content [mg/ml]))*1′000.
The half-life (t1/2 INVITRO) values of selected compounds in the metabolic stability assay described above are listed in Table 15.

[4] = Assay for Determination of Aqueous Solubility; type: physicochemical; details: McIlvaine buffer pH 6.8, 2.5% DMSO; for Aqueous solubility: 24 h
Experimental: Assay for Determination of Aqueous Solubility
The aqueous solubility of a compound is determined by comparing the amount dissolved in aqueous buffer (containing 2.5% DMSO) to the amount dissolved in an acetonitrile/water (1/1) solution. Starting from a 10 mM DMSO stock solution, aliquots are diluted with acetonitrile/water (1/1) and Mcllvaine buffer pH 6.8, respectively. After 24 h of shaking, the solutions or suspensions are filtered and analyzed by LC-UV. The amount dissolved in buffer is compared to the amount dissolved in the acetonitrile/water (1/1) solution. Solubility is measured from 0.001 to 0.125 mg/ml at a DMSO concentration of 2.5%. If more than 90% of the compound is dissolved in buffer, the value is marked with “>”.

[5] = human neutrophil elastase, substrate MeOSuc-Ala-Ala-Pro-Val-AMC, pH 7.5, read-out: IC50

Human neutrophil elastase, sequence (P08246 30-267): as above

IC50 [1, 5] [nM]	IC50 ([1]; read-out: IC50, inhibition of neutrophil elastase) [nM]	EC50 [2] [nM]	half-life at 1 nM [3] [min]	Aqueous solubility [4] [mg/mL]	solubility at 24 h ([4]; McIlvaine buffer pH 6.8 with 2.5% DMSO, aqueous buffer, kinetic from dmso stock) [µg/mL]	Compound
4.8	4.8	3	> 130	0.078	–	CS(=O)(=O)c1cc(C#N)ccc1[C@H]1NC(=O)N(c2cccc(C(F)(F)F)c2)C2=C1C(=O)CCC2 (single isomer, unassigned) [Example 18A]
< 1	–	1	> 130	0.086	–	CNC(=O)N1C(=O)N(c2cccc(C(F)(F)F)c2)C2=C(C(=O)CCC2)[C@H]1c1ccc(C#N)cc1S(C)(=O)=O (single isomer, unassigned) [Example 47A]
3.2	–	1	> 130	0.059	–	CCS(=O)(=O)c1cc(C#N)ccc1[C@H]1NC(=O)N(c2cccc(C(F)(F)F)c2)C2=C1C(=O)CCC2 (single isomer, unassigned) [Example 54A]

Second part, the compound before the results:

Compound	IC50 [1, 5] [nM]	IC50 ([1]; read-out: IC50, inhibition of neutrophil elastase) [nM]	EC50 [2] [nM]	half-life at 1 nM [3] [min]	Aqueous solubility [4] [mg/mL]	solubility at 24 h ([4]; McIlvaine buffer pH 6.8 with 2.5% DMSO, aqueous buffer, kinetic from dmso stock) [µg/mL]
CS(=O)(=O)c1cc(C#N)ccc1[C@H]1NC(=O)N(c2cccc(C(F)F)c2)C2=C1C(=O)CCC2 (single isomer, unassigned) [Example 19A]	7.3	–	2	> 130	0.092	–
CC(C)(O)CNC(=O)N1C(=O)N(c2cccc(C(F)(F)F)c2)C2=C(C(=O)CCC2)C1c1ccc(C#N)cc1 (stereo not drawn) [Example 70.9]	1.7	–	15	> 130	–	12 (≈ 22.8 µM)
